Measurements from US20260015342A1, “HERBICIDAL PYRIMIDINONE DERIVATIVES” (SYNGENTA CROP PROTECTION AG, priority 2022, published 2026).

Experiments:
Assay type in all cases: in vivo
Conditions in all cases: 250 g/ha, evaluated after 13 days
AMAPA [1] = assay: Pre-emergence biological efficacy, glasshouse
Experimental: (§1) Seeds of weeds and/or crops were sown in standard soil in pots. After cultivation for one day under controlled conditions in a glasshouse (at 24/19° C., day/night; 16 hours light), the plants were sprayed with an aqueous spray solution derived from the formulation of the technical active ingredient in a small amount of acetone and a special solvent and emulsifier mixture referred to as IF50 (11.12% Emulsogen EL360 TM+44.44% N-methylpyrrolidone+44.44% Dowanol DPM glycol ether), to create a 50 g/I solution which was then diluted using 0.2% Genapol X080 as diluent to give the desired final dose of test compound.
(§2) The test plants were then grown under controlled conditions in the glasshouse (at 24/18° C., day/night; […]; 50% humidity) and watered twice daily. After 13 days the test was evaluated (100=total damage to plant; 0=no damage to plant).

ECHCG [2] = assay: Pre-emergence biological efficacy, glasshouse
Experimental: as §1, §2

EPHHL [3] = assay: Pre-emergence biological efficacy, glasshouse
Experimental: as §1, §2

IPOHE [4] = assay: Pre-emergence biological efficacy, glasshouse
Experimental: as §1, §2

LOLPE [5] = assay: Pre-emergence biological efficacy, glasshouse
Experimental: as §1, §2

SETFA [6] = assay: Pre-emergence biological efficacy, glasshouse
Experimental: as §1, §2

AMAPA [7] = assay: Post-emergence biological efficacy, glasshouse
Experimental: as §1, with “14 days” for “one day”
(§3) The test plants were then grown under controlled conditions in the glasshouse (at 24/18° C., day/night; 15 hours light; 50% humidity) and watered twice daily. After 13 days the test was evaluated (100=total damage to plant; 0=no damage to plant).

CHEAL = assay: Post-emergence biological efficacy, glasshouse
Experimental: as §1, with “14 days” for “one day”
as §3

DIGSA = assay: Post-emergence biological efficacy, glasshouse
Experimental: as §1, with “14 days” for “one day”
as §3

ECHCG [8] = assay: Post-emergence biological efficacy, glasshouse
Experimental: as §1, with “14 days” for “one day”
as §3

ELEIN = assay: Post-emergence biological efficacy, glasshouse
Experimental: as §1, with “14 days” for “one day”
as §3

EPHHL [9] = assay: Post-emergence biological efficacy, glasshouse
Experimental: as §1, with “14 days” for “one day”
as §3

IPOHE [10] = assay: Post-emergence biological efficacy, glasshouse
Experimental: as §1, with “14 days” for “one day”
as §3

LOLPE [11] = assay: Post-emergence biological efficacy, glasshouse
Experimental: as §1, with “14 days” for “one day”
as §3

SETFA [12] = assay: Post-emergence biological efficacy, glasshouse
Experimental: as §1, with “14 days” for “one day”
as §3

Row | SMILES | damage to plant (100=total damage to plant; 0=no damage to plant), AMAPA (AMAPA [1]) | damage to plant (100=total damage to plant; 0=no damage to plant), ECHCG (ECHCG [2]) | damage to plant (100=total damage to plant; 0=no damage to plant), EPHHL (EPHHL [3]) | damage to plant (100=total damage to plant; 0=no damage to plant), IPOHE (IPOHE [4]) | damage to plant (100=total damage to plant; 0=no damage to plant), LOLPE (LOLPE [5]) | damage to plant (100=total damage to plant; 0=no damage to plant), SETFA (SETFA [6]) | damage to plant (100=total damage to plant; 0=no damage to plant), AMAPA (AMAPA [7]) | damage to plant (100=total damage to plant; 0=no damage to plant), CHEAL (CHEAL) | damage to plant (100=total damage to plant; 0=no damage to plant), DIGSA (DIGSA) | damage to plant (100=total damage to plant; 0=no damage to plant), ECHCG (ECHCG [8]) | damage to plant (100=total damage to plant; 0=no damage to plant), ELEIN (ELEIN) | damage to plant (100=total damage to plant; 0=no damage to plant), EPHHL (EPHHL [9]) | damage to plant (100=total damage to plant; 0=no damage to plant), IPOHE (IPOHE [10]) | damage to plant (100=total damage to plant; 0=no damage to plant), LOLPE (LOLPE [11]) | damage to plant (100=total damage to plant; 0=no damage to plant), SETFA (SETFA [12])
1 | CCOC(=O)C1(C)CC(c2cc(-n3c(OC)nc(C(F)(F)F)cc3=O)c(F)cc2Cl)=NO1 (racemic) [Compound 11, Ethyl 3-[2-chloro-4-fluoro-5-[2-methoxy-6-oxo-4-(trifluoromethyl)pyrimidin-1-yl]phenyl]-5-methyl-4H-isoxazole-5-carboxylate] | 100 | 100 | 100 | 80 | 80 | 100 | 100 | 100 | 100 | 100 | 100 | 100 | 100 | 100 | 100
2 | CCOC(=O)[C@@]1(C)CC(c2cc(-n3c(OC)nc(C(F)(F)F)cc3=O)c(F)cc2Cl)=NO1 [11 (R-enantiomer), Ethyl (5R)-3-[2-chloro-4-fluoro-5-[2-methoxy-6-oxo-4-(trifluoromethyl)pyrimidin-1-yl]phenyl]-5-methyl-4H-isoxazole-5-carboxylate] | 10 | 90 | 50 | 70 | 10 | 90 | 100 | 100 | 100 | 100 | 100 | 90 | 100 | 100 | 80
3 | CCOC(=O)[C@]1(C)CC(c2cc(-n3c(OC)nc(C(F)(F)F)cc3=O)c(F)cc2Cl)=NO1 [11 (S-enantiomer), ethyl (5S)-3-[2-chloro-4-fluoro-5-[2-methoxy-6-oxo-4-(trifluoromethyl)pyrimidin-1-yl]phenyl]-5-methyl-4H-isoxazole-5-carboxylate] | 100 | 100 | 90 | 80 | 40 | 100 | 100 | 100 | 100 | 100 | 100 | 100 | 100 | 100 | 100
